Experimental data as given in patent US20260137698A1, “CYCLIN-DEPENDENT KINASE 7 INHIBITORS” (JOINT STOCK COMPANY «BIOCAD», priority 2022, published 2026).
Where two headings read alike, the source gives them in different places.

Legend:
CDK9/Cyclin K = CDK9/Cyclin K (Homo sapiens, UniProt P50750); experiment: Inhibition of CDK9/Cyclin K kinase activity (ADP-Glo); format: biochemical
Method in brief: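 Kinase preincubated with compound (11 points, 4-fold steps from 50 μM) for 10 minutes at 25° C. in kinase buffer A with DTT, then reacted 40-60 minutes at 25° C. with ATP and CDKtide, Histone H1 or PDKtide substrate. ADP formation read by ADP-Glo luminescence; IC50 from four-parameter fit.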

[1] = tested on: NCl-H82 (small cell lung cancer); experiment: Antiproliferative assay on NCl-H82 cells (AlamarBlue, 120 h); format: cell-based; settings: mean value from several measurements
[2] = tested on: MDA-MB-468 (triple negative breast cancer); experiment: Antiproliferative assay on MDA-MB-468 cells (AlamarBlue, 96 h); format: cell-based; settings: Homo sapiens, mean value from several measurements
[3] = Microsomal stability in human liver microsomes (HLM); format: in vitro ADME; settings: 1 μM test compound
Method: The procedure for investigating the metabolism of selected compounds was carried out in microsomal fractions of the liver (of rats, mice, humans) in the presence of a phase I metabolism cofactor (NADPH).
The rate of enzymatic decomposition of the compound in liver microsomes in in vitro analysis was determined by keeping a reaction mixture comprising 0.5 mg/ml of pooled human, rat or mouse liver microsomes, 1 μM test compound, 1.5 mM […] (Carbosynth, UK, cat. no. NN108711101) and 1.5 mM magnesium chloride in 0.1 M sodium phosphate buffer (pH 7.4) in a solid-state thermostat at 37° C. (XenoTech, USA, order no. H2610, cat. no. R1000, cat. no. M1000). Incubation was carried out in three replicates.
To determine the stability of compounds under sample preparation conditions, an aliquot in two replicates with the test compound and a microsomal fraction devoid of the NADPH cofactor, which was incubated for 40 minutes at 37° C.
Reactions were stopped at 0, 10, 20, 30 and 40 min time points by way of adding an ice mixture of acetonitrile:methanol (3:1) comprising an internal standard.
Samples were then centrifuged to remove the precipitated protein, supernatants were analyzed using HPLC-MS/MS to determine in vitro clearance (CLint) of the compounds. The Agilent 6410 mass spectrometer (Agilent, USA) combined with the Agilent 1260 Infinity II HPLC liquid chromatograph (Agilent, USA) and a cooling autosampler controlled by MassHunter software (Agilent, USA) was used as an HPLC-MS/MS system. Chromatographic analysis was performed on a C18 reversed-phase HPLC column (Agilent, Waters or equivalent) in a gradient elution mode in a system of mobile phases: 0.1% formic acid in water/0.1% formic acid in acetonitrile, flow rate: 0.5 ml/min, column T=35° C. Mass spectrometric detection was performed with electrospray ionization in multiple reaction monitoring mode. Precursor ions, fragment ions and collision energies for each substance were selected experimentally.
A graph of dependence of the logarithmic ratio between substance's peak area and internal standard's peak area vs time was built. The dependent coefficient of this line corresponded to the elimination rate constant k, on the basis of which the in vitro clearance CLint was calculated:
Based on resulting in vitro clearance CLint values, the microsomal stability of the selected compounds for humans, rats and mice was concluded.

[4] = mean of multiple measurement series, ATP 50 μM, read-out: CDK9/Cyclin K IC50
[5] = mean value from several measurements, read-out: IC50 CDK9/Cyclin K

Chain of CDK9/Cyclin K (P50750 whole entry): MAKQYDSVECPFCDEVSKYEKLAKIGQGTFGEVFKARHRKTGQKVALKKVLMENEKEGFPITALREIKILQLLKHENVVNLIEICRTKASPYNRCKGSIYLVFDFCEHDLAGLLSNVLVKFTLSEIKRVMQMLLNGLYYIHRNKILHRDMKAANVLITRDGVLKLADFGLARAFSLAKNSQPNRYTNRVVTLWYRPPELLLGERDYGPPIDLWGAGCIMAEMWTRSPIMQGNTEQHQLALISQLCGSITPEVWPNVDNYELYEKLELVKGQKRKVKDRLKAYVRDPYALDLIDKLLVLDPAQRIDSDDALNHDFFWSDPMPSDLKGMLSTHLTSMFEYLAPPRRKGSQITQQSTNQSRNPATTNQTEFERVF
Chain of CDK9/Cyclin K (O75909 whole entry partner): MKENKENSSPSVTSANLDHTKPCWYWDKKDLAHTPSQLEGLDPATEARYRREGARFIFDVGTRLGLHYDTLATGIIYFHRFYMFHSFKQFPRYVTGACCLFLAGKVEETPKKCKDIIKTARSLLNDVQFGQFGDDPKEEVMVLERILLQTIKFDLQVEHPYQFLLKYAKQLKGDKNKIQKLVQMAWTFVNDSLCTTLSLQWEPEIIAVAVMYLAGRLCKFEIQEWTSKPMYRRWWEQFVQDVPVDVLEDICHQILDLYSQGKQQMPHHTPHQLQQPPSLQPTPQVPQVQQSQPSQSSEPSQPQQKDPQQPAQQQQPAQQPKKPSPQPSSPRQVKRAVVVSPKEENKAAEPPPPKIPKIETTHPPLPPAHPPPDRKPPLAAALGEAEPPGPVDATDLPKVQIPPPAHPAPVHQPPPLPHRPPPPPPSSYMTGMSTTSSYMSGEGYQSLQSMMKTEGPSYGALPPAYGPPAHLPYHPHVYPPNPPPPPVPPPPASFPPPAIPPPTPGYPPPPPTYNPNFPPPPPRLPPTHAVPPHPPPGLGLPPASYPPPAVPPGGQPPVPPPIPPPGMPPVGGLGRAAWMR

SMILES | IC50 (CDK9/Cyclin K; [4]) | IC50 (CDK9/Cyclin K; [5]) | IC50 [1] | IC50 [2] | In vitro clearance CLint (HLM) [3]
Cn1cc(N2CCCc3c(-c4nc(N[C@H]5CCC(C)(C)NC5)ncc4C(F)(F)F)c[nH]c3C2=O)cn1 [CDK7_1122, 3-(2-{[(3S)-6,6-dimethylpiperidin-3-yl]amino}-5-(trifluoromethyl)py-rimidin-4-yl)-7-(1-methyl-1H-pyrazol-4-yl)-1H,4H,5H,6H,7H, 8H-pyrrolo[2,3-c]azepin-8-one] | – | > 200 nM | – | 100 to 1000 nM | A (Clint < 20 μl/(min · mg of protein))
O=C1c2[nH]cc(-c3nc(NC4CCCNC4)ncc3C(F)(F)F)c2CCCN1C1CC1 (stereo not drawn) [CDK7_1188] | – | > 200 nM | < 10 nM | < 10 nM | A (Clint < 20 μl/(min · mg of protein))
CC1CCc2c(-c3nc(N[C@H]4CCCNC4)ncc3C(F)(F)F)c[nH]c2C(=O)N1C (stereo partly drawn) [CDK7_1254, 6,7-dimethyl-3-(2-{[(3S)-piperidin-3-yl]amino}-5-(trifluoromethyl)py-rimidin-4-yl)-1H,4H,5H,6H,7H, 8H-pyrrolo[2,3-c]azepin-8-one] | – | > 200 nM | 10 to 100 nM | 10 to 100 nM | A (Clint < 20 μl/(min · mg of protein))
CN1CCCc2c(-c3nc(N[C@H]4CCCNC4)ncc3C(F)(F)F)c[nH]c2C1=O [CDK7_953, 7-methyl-3-(2-{[(3S)-piperidin-3-yl]amino}-5-(trifluoromethyl)py-rimidin-4-yl)-1H,4H,5H,6H,7H, 8H-pyrrolo[2,3-c]azepin-8-one] | 60 nM | 50 to 200 nM | < 10 nM | < 10 nM | A (Clint < 20 μl/(min · mg of protein))
O=C1c2[nH]cc(-c3nc(NC4CCCNC4)ncc3C(F)(F)F)c2CCCN1c1nccs1 (stereo not drawn) [CDK7_1172] | – | > 200 nM | 10 to 100 nM | 10 to 100 nM | B (50 μl/(min · mg of protein) > Clint > 20 μl/(min · mg of protein))
CCN1CCCc2c(-c3nc(N[C@H]4CCC(C)(C)NC4)ncc3C(F)(F)F)c[nH]c2C1=O [CDK7_1259, 3-(2-{[(3S)-6,6-dimethylpiperidin-3-yl]amino}-5-(trifluoromethyl)py-rimidin-4-yl)-7-ethyl-1H,4H,5H,6H,7H, 8H-pyrrolo[2,3-c]azepin-8-one] | – | > 200 nM | 10 to 100 nM | 10 to 100 nM | –
O=C1c2[nH]cc(-c3nc(N[C@H]4CCC5(CC5)NC4)ncc3C(F)(F)F)c2CCCN1C1CC1 [CDK7_1276, 3-(2-{[(6S)-4-azaspiro[2.5]octan-6-yl]amino}-5-(trifluoromethyl)py-rimidin-4-yl)-7-cyclopropyl-1H,4H,5H,6H,7H, 8H-pyrrolo[2,3-c]azepin-8-one] | 296 nM | > 200 nM | < 10 nM | < 10 nM | B (50 μl/(min · mg of protein) > Clint > 20 μl/(min · mg of protein))
CC(C)N1CCCc2c(-c3nc(N[C@H]4CCC5(CC5)NC4)ncc3C(F)(F)F)c[nH]c2C1=O [CDK7_1277, 3-(2-{[(6S)-4-azaspiro[2.5]octan-6-yl]amino}-5-(trifluoromethyl)py-rimidin-4-yl)-7-(propan-2-yl)-1H,4H,5H,6H,7H, 8H-pyrrolo[2,3-c]azepin-8-one] | 442 nM | > 200 nM | < 10 nM | < 10 nM | B (50 μl/(min · mg of protein) > Clint > 20 μl/(min · mg of protein))
Cn1cc(-n2ccc3c(-c4nc(N[C@H]5CCCNC5)ncc4C(F)(F)F)c[nH]c3c2=O)cn1 [CDK7_959, 6-(1-methyl-1H-pyrazol-4-yl)-3-(2-{[(3S)-piperidin-3-yl]amino}-5-(trifluoromethyl)py-rimidin-4-yl)-1H,6H,7H-pyrrolo[2,3-c]pyridin-7-one] | 106 nM | 50 to 200 nM | < 10 nM | < 10 nM | A (Clint < 20 μl/(min · mg of protein))
Cn1cc(N2CCCc3c(-c4nc(N[C@H]5CCCNC5)ncc4C(F)(F)F)c[nH]c3C2=O)cn1 [CDK7_955, 7-(1-methyl-1H-pyrazol-4-yl)-3-(2-{[(3S)-piperidin-3-yl]amino}-5-(trifluoromethyl)py-rimidin-4-yl)-1H,4H,5H,6H,7H, 8H-pyrrolo[2,3-c]azepin-8-one] | – | > 200 nM | > 1000 nM | 100 to 1000 nM | A (Clint < 20 μl/(min · mg of protein))
CC(C)N1CCCc2c(-c3nc(N[C@H]4CCC(C)(C)NC4)ncc3C(F)(F)F)c[nH]c2C1=O [CDK7_1229, 3-(2-{[(3S)-6,6-dimethylpiperidin-3-yl]amino}-5-(trifluoromethyl)py-rimidin-4-yl)-7-(propan-2-yl)-1H,4H,5H,6H,7H, 8H-pyrrolo[2,3-c]azepin-8-one] | 485 nM | > 200 nM | 10 to 100 nM | 10 to 100 nM | B (50 μl/(min · mg of protein) > Clint > 20 μl/(min · mg of protein))
CN1CCCc2c(-c3nc(N[C@H]4CCC(C)(C)NC4)ncc3C(F)(F)F)c[nH]c2C1=O [CDK7_1187, 3-(2-{[(3S)-6,6-dimethylpiperidin-3-yl]amino}-5-(trifluoromethyl)py-rimidin-4-yl)-7-methyl-1H,4H,5H,6H,7H, 8H-pyrrolo[2,3-c]azepin-8-one] | 182 nM | > 200 nM | < 10 nM | < 10 nM | B (50 μl/(min · mg of protein) > Clint > 20 μl/(min · mg of protein))

The next lines start with the values.

IC50 (CDK9/Cyclin K; [4]) | IC50 (CDK9/Cyclin K; [5]) | IC50 [1] | IC50 [2] | In vitro clearance CLint (HLM) [3] | SMILES
265 nM | > 200 nM | 10 to 100 nM | < 10 nM | A (Clint < 20 μl/(min · mg of protein)) | Cn1cc(-n2ccc3c(-c4nc(N[C@H]5CCC(C)(C)NC5)ncc4C(F)(F)F)c[nH]c3c2=O)cn1 [CDK7_1123, 3-(2-{[(3S)-6,6-dimethylpiperidin-3-yl]amino}-5-(trifluoromethyl)py-rimidin-4-yl)-6-(1-methyl-1H-pyrazol-4-yl)-1H,6H,7H-pyrrolo[2,3-c]pyridin-7-one]
– | – | – | 100 to 1000 nM | A (Clint < 20 μl/(min · mg of protein)) | O=C1c2[nH]cc(-c3nc(N[C@H]4CCCNC4)ncc3C(F)(F)F)c2CCCN1c1ccccn1 [CDK7_1176, 3-(2-{[(3S)-piperidin-3-yl]amino}-5-(trifluoromethyl)py-rimidin-4-yl)-7-(pyridin-2-yl)-1H,4H,5H,6H,7H, 8H-pyrrolo[2,3-c]azepin-8-one]
441 nM | > 200 nM | 10 to 100 nM | 10 to 100 nM | A (Clint < 20 μl/(min · mg of protein)) | CC1(C)CC[C@H](Nc2ncc(C(F)(F)F)c(-c3c[nH]c4c3CCCN(C3CC3)C4=O)n2)CN1 [CDK7_1225, 7-cyclopropyl-3-(2-{[(3S)-6,6-dimethylpiperidin-3-yl]amino}-5-(trifluoromethyl)py-rimidin-4-yl)-1H,4H,5H,6H,7H, 8H-pyrrolo[2,3-c]azepin-8-one]
69 nM | 50 to 200 nM | < 10 nM | < 10 nM | A (Clint < 20 μl/(min · mg of protein)) | O=c1c2[nH]cc(-c3nc(N[C@H]4CCCNC4)ncc3C(F)(F)F)c2ccn1Cc1ccccc1 [CDK7_961, 6-benzyl-3-(2-{[(3S)-piperidin-3-yl]amino}-5-(trifluoromethyl)py-rimidin-4-yl)-1H,6H,7H-pyrrolo[2,3-c]pyridin-7-one]
– | > 200 nM | 10 to 100 nM | 10 to 100 nM | – | CC1(C)CC[C@H](Nc2ncc(C(F)(F)F)c(-c3c[nH]c4c3CCCN(CC3CC3)C4=O)n2)CN1 [CDK7_1227, 7-(cyclopropylmeth-yl)-3-(2-{[(3S)-6,6-dimethylpiperidin-3-yl]amino}-5-(trifluoromethyl)py-rimidin-4-yl)-1H,4H,5H,6H,7H, 8H-pyrrolo[2,3-c]azepin-8-one]
